Results as given in US20020122768A1, “Stable radiopharmaceutical compositions and methods for preparation thereof” (priority 2000, published 2002).

What was measured:
[1] = Solution stability of ^177Lu-C at −78° C., RCP by radio-HPLC; type: physicochemical; conditions: ^177Lu-C prepared using 2 mg GA, degassed, second stabilizer (20 mg AA, 20 mg DSA, 10 mg 2,3,4-THBA, 10 mg 3,4,5-THBA) added post-labeling
[2] = Solution stability of ^90Y-A at −78° C., RCP by radio-HPLC; type: physicochemical; conditions: for RCP (%) change: t = 0 h to 72 h
Procedure: The integrity of a radiopharmaceutical is measured by the radiochemical purity (RCP) of the radiolabeled compound using ITLC or more preferably HPLC. The advantage of using HPLC is that radio-impurities caused by radiolytic degradation can be separated from the radiopharmaceutical under optimized chromatographic conditions. […] The radiopharmaceutical compositions of this invention are effective in maintaining the long-term stability of samples that have been frozen, thawed, and re-tested periodically for 7 days.
The initial RCP of a radiopharmaceutical is largely dependent on radiolabeling conditions such as pH, heating temperature and time. Once a radiopharmaceutical is prepared in high yield, the stability of the radiopharmaceutical composition is measured by the` RCP change of the radiopharmaceutical over a certain period of time. For comparison purposes, sodium gentisate or sodium ascorbate was often used as the reference since they have been used in various radiopharmaceutical formulations.
Analytical Methods. HPLC method 1 used a HP-1100 HPLC system with a UV/visible detector (λ=220 nm), an IN-US radio-detector, and a Zorbax C18 column (4.6 mm×250 mm, 80 Å pore size). The flow rate was 1 mL/min with the mobile phase being isocratic from 0 to 18 min using 87% solvent A (0.025 M ammonium acetate buffer, pH 6.8) and 13% solvent B (acetonitrile), followed by an isocratic wash using 40% of solvent A and 60% solvent B from 19 to 25 min.
The ITLC method used Gelman Sciences silica-gel ITLC paper strips and 1:1 mixture of acetone and saline as eluant. By this method, the radiolabeled compounds migrate to the solvent front while [^90Y]/^177Lu]colloid and [^90Y]/^177Lu]acetate remain at the origin.
^90Y-A was prepared using the procedure described in example 4. The resulting solution was the kept in a dry-ice box (−78° C.) for 3 days. Samples were analyzed at t=0, 24, 48, and 72 h.
To a lead-shielded clean 5 mL vial containing 100 μg of COMPOUND A and 2 mg of 3,4,5-trihydroxybenzoic acid (3,4,5-THBA) dissolved in 0.5 mL of 0.5 M ammonium acetate buffer (pH=8.0) was added 20 μL Of ^90YCl3 solution (˜20 mCi) in 0.05 N HCl. The reaction mixture was heated at 100° C. for 5 min. After cooling to room temperature, 0.5 mL of 3,4,5-THBA solution (20 mg/mL) in 0.5 M ammonium acetate buffer (pH=8.0) was added to the solution above. A sample of the resulting mixture was then diluted 20-fold with GA solution (10 mg/mL, pH=7.4), and analyzed by HPLC (Method 1, injection volume=1 μL) and ITLC. […] The resulting mixture was kept at −78° C. for 3 days. Samples were analyzed at t=0, 1, 2, and 3 days.
(§1) Synthesis of ^90Y-A was carried out according to the procedure described in example 12. After cooling to room temperature, 0.5 mL of 2,3,4-THBA solution (20 mg/mL) in 0.5 M ammonium acetate buffer (pH=8.0) was added to the solution containing ^90Y-A. The resulting mixture was kept at -78 °C for 3 days. Samples were analyzed at t=0, 1, 2, and 3 days.
as §1, with “DSA” for “2,3,4-THBA”, “−78° C.” for “-78 °C”
as §1, with “mL of HABA solution (20” for “mL of 2,3,4-THBA solution (20”, “kept at −78° C. for 3” for “kept at -78 °C for 3”, “3 days. […]” for “3 days.”
To a lead-shielded clean 30 mL vial containing 1000 μg of COMPOUND A and 100 mg of sodium gentisate (GA) dissolved in 5 mL of 0.5 M ammonium acetate buffer (pH=7.5) was added ˜250 μL of ^90YCl3 solution (˜200 mCi) in 0.05 N HCl. The reaction mixture was heated at 100° C. for 15 min. […]

[3] = ^90Y-A prepared using 2 mg 3,4,5-THBA, second stabilizer (0.5 mL of 20 mg/mL) added after radiolabeling, −78° C.
[4] = ^90Y-A prepared using 2 mg 3,4,5-THBA, second stabilizer added after radiolabeling, −78° C.
[5] = ^90Y-A, 10 mg stabilizer, dry-ice box (−78° C.)
[6] = ^90Y-A, 10 mg stabilizer, −78° C.

In the case of 2,4-disulfonatobenzeneamine [DSA], the “RCP (%) t = 1 day” value [1] is reported as 97.4%, the “RCP (%) t = 0 h” value [2, 3] is reported as 98.5% and the “RCP (%) t = 24 h” value [2, 3] is reported as 98.9%. The “RCP (%) t = 48 h” value [2, 3] was 96.7%, the “RCP (%) t = 72 h” value [2, 3] was 96.7% and the “RCP (%) change” value [2, 4] was 1.8%. For the same molecule, the “RCP (%) t = 0 h” value [2, 5] was 94.4%, the “RCP (%) t = 24 h” value [2, 5] was 94.0% and the “RCP (%) t = 48 h” value [2, 5] was 94.1%. For the same molecule, the “RCP (%) t = 72 h” value [2, 5] was 94.2% and the “RCP (%) change” value [2, 6] was 0.2%.

In the case of `O=C(O)c1ccc(O)c(O)c1O` [2,3,4-THBA, 2,3,4-trihydroxybenzoic acid], the “RCP (%) t = 1 day” value [1] is reported as 96.6%, the “RCP (%) t = 0 h” value [2, 3] is reported as 98.1% and the “RCP (%) t = 24 h” value [2, 3] is reported as 99.2%. For the same molecule, the “RCP (%) t = 48 h” value [2, 3] was 99.0%, the “RCP (%) t = 72 h” value [2, 3] was 98.2% and the “RCP (%) change” value [2, 4] was 0%.

For `O=C(O)c1cc(O)c(O)c(O)c1` [3,4,5-THBA, 3,4,5-trihydroxybenzoic acid], the “RCP (%) t = 1 day” value [1] was 97.9%, the “RCP (%) t = 0 h” value [2, 3] was 97.5% and the “RCP (%) t = 24 h” value [2, 3] was 98.4%. For the same molecule, the “RCP (%) t = 48 h” value [2, 3] was 98.3%, the “RCP (%) t = 72 h” value [2, 3] was 96.6% and the “RCP (%) change” value [2, 4] was 0.9%. The “RCP (%) t = 0 h” value [2, 5] was 93.3%, the “RCP (%) t = 24 h” value [2, 5] was 92.4% and the “RCP (%) t = 48 h” value [2, 5] was 93.5%. The “RCP (%) t = 72 h” value [2, 5] was 93.5% and the “RCP (%) change” value [2, 6] was 0.2%.
